Data from US20260209260A1, “VECTORIZED NHC IRIDIUM(III) COMPLEXES AND USE THEREOF IN PHOTODYNAMIC THERAPY AND/OR DIAGNOSTIC” (CENTRE NATIONAL DE LA RECHERCHE SCIENTIFIQUE, priority 2022, published 2026).
Values joined by “and” are separate entries in the source; they are usually repeats but may differ in a detail not shown here. Equal values may be shown once. Read-outs that look alike come from different tables or passages of the source.

Assays:
[1] = system: MiaPaCa2 pancreas cancer cells; test: Cell viability assay (MTT), dark and blue light; type: cell-based, Human; settings: for SI (vs MC3T3) MiaPaCa2 Blue / SI (vs NIH-3T3) MiaPaCa2 Blue: blue light 458 nm; for Photosensitizing index (PI) MiaPaCa2: dark vs blue light 458 nm
Procedure: (§1) Cells were grown in humidified incubators at 37° C. in 5% CO2. Murine MC3T3 osteoblast and NIH-3T3 fibroblast cells-used as non-tumor cell models-were cultured in a-MEM medium and DMEM medium supplemented with 10% fetal bovine serum (FBS) and 1% Penicillin/Streptomycin (P/S) antibiotics, respectively. Human T24 bladder, MGHU3 bladder, Scaber bladder, A549 lung, MCF7 breast, MiaPaCa2 pancreas cancer cells were cultured in DMEM medium supplemented with 10% FBS and 1% P/S antibiotics. […] Human Hela cervix and HepG2 liver cancer cells were cultured EMEM medium supplemented with 10% FBS and 1% P/S antibiotics.
(§2) MTT reagent (3-(4,5-dimethylthiazol-2-yl)-2,5-diphenyltetrazolium bromide) was used to determine cell death as originally described by Mosmann. Briefly, cells were seeded from 5,000 to 10,000 cells/well in 24-well plates (1 mL) depending on the cell type and allowed to attach overnight. The complexes were prepared in DMSO. The concentration of the complexes was calculated based on the elemental composition of the complexes determined by the elemental analyses. All cell viability experiments were carried out with a fixed concentration of 0.1% (v/v) DMSO. After 72 h of treatment, cells were incubated at 37° C. and 5% CO2 with 25 μL of MTT solution (5 mg/ml; Sigma-Aldrich) in 24-well plates for 3 to 4 h. After solubilization with 500 μL of DMSO, formazan was quantified spectrophotometrically with a microplate reader at 570 nm absorbance (ClarioSTAR, BMG LabTech). […] All the results were calculated from data obtained in at least three independent experiments performed in triplicate.
(§3) Two sets of experiments were conducted in parallel for each complex to be studied:
(§4) 1. The cells were incubated with the different complexes (in the dark) for 72 h.
(§5) 2. The cells were incubated for 8 h with the different complexes (in the dark), then irradiated for 10 min, followed by an incubation in the dark up to 72 h.

[2] = system: A549 lung cancer cells; test: Cell viability assay (MTT), dark and blue light; type: cell-based, Human; settings: for SI (vs MC3T3) A549 Blue / SI (vs NIH-3T3) A549 Blue: blue light 458 nm; for Photosensitizing index (PI) A549: dark vs blue light 458 nm
Procedure: as §1, §2, §3, §4, §5

[3] = system: ASPC-1 pancreas cancer cells; test: Cell viability assay (MTT), dark and blue light; type: cell-based, Human; settings: for SI (vs MC3T3) ASPC-1 Blue / SI (vs NIH-3T3) ASPC-1 Blue: blue light 458 nm; for Photosensitizing index (PI) ASPC-1: dark vs blue light 458 nm
Procedure: as §1, §2, §3, §4, §5

[4] = system: T24 bladder cancer cells; test: Cell viability assay (MTT), dark and blue light; type: cell-based, Human; settings: for SI (vs MC3T3) T24 Blue / SI (vs NIH-3T3) T24 Blue: blue light 458 nm; for Photosensitizing index (PI) T24: dark vs blue light 458 nm
Procedure: as §1, §2, §3, §4, §5

[5] = Emission lifetime measurement; type: physicochemical
Summary of the method: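 Emission lifetimes measured by time-correlated single-photon counting (0.5 ns time resolution), excitation from a D2 lamp and a 405 nm pulsed diode laser. Estimated error 5% on lifetime.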

[6] = system: MC3T3 osteoblast cells (non-tumor); test: Cell viability assay (MTT), dark and blue light; type: cell-based, Murine; settings: for Photosensitizing index (PI) MC3T3: dark vs blue light 458 nm
Summary of the method: (§6)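 72 h continuous exposure in the dark, or 8 h dark incubation then 10 min irradiation and dark incubation up to 72 h; 0.1% (v/v) DMSO throughout. Viability read by MTT, formazan absorbance at 570 nm. At least three independent experiments in triplicate.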

[7] = system: NIH-3T3 fibroblast cells (non-tumor); test: Cell viability assay (MTT), dark and blue light; type: cell-based, Murine; settings: for Photosensitizing index (PI) NIH-3T3: dark vs blue light 458 nm
Summary of the method: as §6

[8] = UV/Vis absorption spectra; type: physicochemical; settings: room temperature, air-saturated CH2Cl2 or CH2Cl2/MeOH (1:1), 50 μM; ε in brackets, sh = shoulder
Procedure: UV/Vis absorption spectra were recorded at RT on solutions contained in quartz cuvettes (optical pathlength 1 cm, Hellma®) with a PerkinElmer® UV/VIS/NIR spectrophotometer Lambda 950 and a PerkinElmer® detector UV/VIS/NIR Accessory 2D Detector Module.

[9] = Lipophilicity: octanol-water partition coefficient, shake-flask method
Summary of the method: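 Octanol and water mutually pre-saturated for 24 h; compound ([…] stock in aqueous phase) partitioned against equal volume n-octanol, mixed 15 min, phases separated by centrifugation.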

[10] = system: cancer cells (all tumor cell lines tested); test: Cell viability assay (MTT), summary over the cancer cell lines tested; type: cell-based, Human
Procedure: as §1, §2, §3, §4, §5

[11] = Luminescence emission spectra and quantum yield; type: physicochemical; settings: room temperature; reference POPOP in hexane or rhodamine B in ethanol
Summary of the method: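 Spectrofluorometric fluorescence/phosphorescence emission spectra of the iridium(III) complexes recorded in CH2Cl2 at room temperature. Quantum yields by the Demas–Crosby relative method on solutions at RT, from integrated emission band areas versus a reference standard of known yield, corrected for solvent refractive index.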

[12] = POPOP in hexane, rhodamine B in ethanol; cited from earlier work
[13] = 8 h in the dark, blue light 458 nm 10 min, then dark up to 72 h, read-out: GI50 MiaPaCa2 Blue
[14] = in the dark, 72 h, read-out: GI50 MiaPaCa2 Dark
[15] = 8 h in the dark, blue light 458 nm 10 min, then dark up to 72 h, read-out: GI50 A549 Blue
[16] = in the dark, 72 h, read-out: GI50 A549 Dark
[17] = 8 h in the dark, blue light 458 nm 10 min, then dark up to 72 h, read-out: GI50 ASPC-1 Blue
[18] = in the dark, 72 h, read-out: GI50 ASPC-1 Dark
[19] = 8 h in the dark, blue light 458 nm 10 min, then dark up to 72 h, read-out: GI50 T24 Blue
[20] = in the dark, 72 h, read-out: GI50 T24 Dark
[21] = 8 h in the dark, blue light 458 nm 10 min, then dark up to 72 h, read-out: GI50 MC3T3 Blue
[22] = in the dark, 72 h, read-out: GI50 MC3T3 Dark
[23] = 8 h in the dark, blue light 458 nm 10 min, then dark up to 72 h, read-out: GI50 NIH-3T3 Blue
[24] = in the dark, 72 h, read-out: GI50 NIH-3T3 Dark

Structure (SMILES) | GI50 [1, 13] [µM] | SI (vs MC3T3) MiaPaCa2 Blue [1] | SI (vs NIH-3T3) MiaPaCa2 Blue [1] | SI (vs MC3T3) MiaPaCa2 Dark [1] | SI (vs NIH-3T3) MiaPaCa2 Dark [1] | Photosensitizing index (PI) MiaPaCa2 [1] | GI50 [1, 14] [µM] | GI50 [2, 15] [µM] | SI (vs MC3T3) A549 Blue [2] | SI (vs NIH-3T3) A549 Blue [2] | SI (vs MC3T3) A549 Dark [2] | SI (vs NIH-3T3) A549 Dark [2] | Photosensitizing index (PI) A549 [2] | GI50 [2, 16] [µM] | GI50 [3, 17] [µM] | SI (vs MC3T3) ASPC-1 Blue [3] | SI (vs NIH-3T3) ASPC-1 Blue [3] | SI (vs MC3T3) ASPC-1 Dark [3] | SI (vs NIH-3T3) ASPC-1 Dark [3] | Photosensitizing index (PI) ASPC-1 [3] | also measured
COC(=O)c1ccc2[n+](c1)[Ir-3]13([c]4ccccc4-2)([c]2ccccc2-c2ccc(C(=O)OC)c[n+]21)[c]1n(CCCNC(=O)c2ccccc2SC/C=C(\C)CC/C=C(\C)CCC=C(C)C)cc[n+]1-c1cccc[n+]13.F[P-](F)(F)(F)(F)F [II-e] | 0.18 | 57.7 | 29.7 | 5.6 | 6.1 | 11.2 | 2 | 0.69 | 14.6 | 7.5 | 2.9 | 3.2 | 5.5 | 3.8 | 1.3 | 7.9 | 4.1 | 2.2 | 2.3 | 4.0 | GI50 [3, 18]: 5.1 µM; GI50 [4, 19]: 0.26 µM; SI (vs MC3T3) T24 Blue [4]: 38.8; SI (vs NIH-3T3) T24 Blue [4]: 20.0; SI (vs MC3T3) T24 Dark [4]: 5.0; SI (vs NIH-3T3) T24 Dark [4]: 5.5; Photosensitizing index (PI) T24 [4]: 8.6; GI50 [4, 20]: 2.2 µM; τ1 emission lifetime [5]: 182 ns; GI50 [6, 21]: 10.1 µM; Photosensitizing index (PI) MC3T3 [6]: 1.1; GI50 [6, 22]: 11 µM; GI50 [7, 23]: 5.2 µM; Photosensitizing index (PI) NIH-3T3 [7]: 2.3; GI50 [7, 24]: 12 µM; λmax (nm) ε (M^−1 · cm^−1) [8]: 310 (sh) (24540), 363 (sh) (5975), 432 (5280) nm (M^−1 · cm^−1); Log P ([9]; n-octanol/water, shake-flask, mean of at least three determinations): 1.30 ± 0.02; SI values, mean over cancer cells, dark [10]: 4.1 fold; SI values, median over cancer cells, dark [10]: 4.1 fold; ΦP emission phosphorescence quantum yield [11]: 4.6%
CC(C)=CCC/C(C)=C/CC/C(C)=C/CSc1ccccc1C(=O)NCCCn1cc[n+]2[c]1[Ir-3]13([c]4ccccc4-c4ccc5ccccc5[n+]41)([c]1ccccc1-c1ccc4ccccc4[n+]13)[n+]1ccccc1-2.F[P-](F)(F)(F)(F)F [II-g] | 0.25 | 24.0 | 20.7 | 14.4 | 10.7 | 1.6 | 0.4 | 0.39 | 15.2 | 13.2 | 12.9 | 9.6 | 1.2 | 0.45 | 0.47 | 12.6 | 10.9 | 7.8 | 5.8 | 1.6 | GI50 [3, 18]: 0.74 µM; GI50 [4, 19]: 0.64 µM and 0.65 µM; SI (vs MC3T3) T24 Blue [4]: 9.2; SI (vs NIH-3T3) T24 Blue [4]: 8.0; SI (vs MC3T3) T24 Dark [4]: 12.3; SI (vs NIH-3T3) T24 Dark [4]: 9.1; Photosensitizing index (PI) T24 [4]: 0.7; GI50 [4, 20]: 0.47 µM; GI50 [6, 21]: 5.9 µM; Photosensitizing index (PI) MC3T3 [6]: 1.0; GI50 [6, 22]: 5.8 µM; GI50 [7, 23]: 5.1 µM; Photosensitizing index (PI) NIH-3T3 [7]: 0.8; GI50 [7, 24]: 4.3 µM; λmax (nm) ε (M^−1 · cm^−1) [8]: 333 (20560), 438 (4735) nm (M^−1 · cm^−1); Log P [9]: 1.95 ± 0.05; selectivity for cancer cells over non-tumor cells, in words [10]: highest selectivity toward cancer cells compared to non-tumor cells; SI values, mean over cancer cells, dark [10]: 10.2 fold; SI values, median over cancer cells, dark [10]: 10.3 fold
CCN(CC)c1ccc2c(-c3ccccc3C(=O)O)c3ccc(=[N+](CC)CC)cc-3oc2c1.[Cl-] [rhodamine B] |  |  |  |  |  |  |  |  |  |  |  |  |  |  |  |  |  |  |  |  | quantum yield of the reference standard [12]: 65%
